25 molecules from patent US12577227B2, “WDR5 inhibitors and modulators” (Vanderbilt University, priority 2019, dated 2026) can be followed below.

The subject of the assay is MV4:11 human cancer cell lines. Nature of the assay: Cellular viability / anti-proliferative activity (CellTiter-Glo). The format is cell-based. Conditions: MV4-11, 120 h, MV-4-11 cells, 5 day protocol, mean of minimum two replicates, read-out: GI50 on cellular proliferation of MV4:11 human cancer cell lines. How it is done: Cellular Viability of Human Tumor Cell Lines
Anti-Proliferative Activity Using MLL-Harboring Cell Lines.
MV-4-11 and K562 cells are grown in IMDM media supplemented with 10% FBS and […], Molm-13 cells are cultured in RPMI-1640 media supplemented with 10% FBS and 1% o penicillin/streptomycin. Viability assays are performed by dispensing 200 cells at 7200 cells/mL into each well of an opaque 384-well plate and adding compounds at the indicated concentrations in a final volume of 32 μL and a final concentration of DMSO of 0.3% for all samples. A certain range of compound concentrations is made through a series of 2-fold dilutions starting 30 μM at the highest, total 22 dilutions. After a set incubation period, 5 day protocol, the viability of cells in each well is assessed using the CellTiter-Glo assay (Promega), read on a 96 Microplane Luminometer (Cytation 3, BioTek). Serial dilutions of each cell type are performed in all assays to generate standard curves and the final densities of cells are determined within the dynamic range of the instrument. GI50 values are calculated based on XLfit software (IDBS, Guildford, UK) with Sigmoidal Dose-Response Model. Each compound is tested in minimum of two replicates. Data are expressed as mean.
(ATP-based viability assays read luminescence as a measure of living cells.)

`COc1cc(Cn2cnc3c(-c4ccc(F)cc4C)cc(Cn4ccn(C)c4=N)cc3c2=O)cc(OC)c1` [Example 1, 3-(3,5-Dimethoxybenzyl)-8-(4-fluoro-2-methylphenyl)-6-((2-imino-3-methyl-2,3-dihydro-1H-imidazol-1-yl)methyl)quinazolin-4(3H)-one]: the GI50 is 150 nM. The value for `COc1cc(Cn2cnc3c(-c4ccc(F)cc4C)cc(Cc4c[nH]c5ccccc45)cc3c2=O)cc(OC)c1` [Example 2, 6-((1H-Indol-3-yl)methyl)-3-(3,5-dimethoxybenzyl)-8-(4-fluoro-2-methylphenyl)quinazolin-4(3H)-one] was > 940 nM; that for `COc1cc(CN2CCOc3c(cc(Cn4ccn(C)c4=N)cc3-c3ccc(F)cc3C)C2=O)cc(OC)c1` [Example 3, 4-(3,5-Dimethoxybenzyl)-9-(4-fluoro-2-methylphenyl)-7-((2-imino-3-methyl-2,3-dihydro-1H-imidazol-1-yl)methyl)-3,4-dihydrobenzo[f][1,4]oxazepin-5(2H)-one] was 19 nM; that for `COc1cc(Cn2cnc3c(-c4ccc(F)cc4C)cc(Cn4ccc5ccccc54)cc3c2=O)cc(OC)c1` [Example 4, 6-((1H-Indol-1-yl)methyl)-3-(3,5-dimethoxybenzyl)-8-(4-fluoro-2-methylphenyl)quinazolin-4(3H)-one] was > 940 nM. For `COc1cc(Cn2cnc3c(-c4ccc(F)cc4C)cc(Cn4ccc5cccnc54)cc3c2=O)cc(OC)c1` [Example 5, 6-((1H-Pyrrolo[2,3-b]pyridin-1-yl)methyl)-3-(3,5-dimethoxybenzyl)-8-(4-fluoro-2-methylphenyl)quinazolin-4(3H)-one], the GI50 was > 940 nM. The value for `COc1cc(CN2CCOc3c(cc(Cn4cnn(C)c4=N)cc3-c3ccc(F)cc3C)C2=O)cc(OC)c1` [Example 6, 4-(3,5-Dimethoxybenzyl)-9-(4-fluoro-2-methylphenyl)-7-((5-imino-1-methyl-1,5-dihydro-4H-1,2,4-triazol-4-yl)methyl)-3,4-dihydrobenzo[f][1,4]oxazepin-5(2H)-one] was 86 nM; that for `COc1cc(CN2CCOc3c(cc(CNc4nocc4C)cc3-c3ccc(F)cc3C)C2=O)cc(OC)c1` [Example 7, 4-(3,5-Dimethoxybenzyl)-9-(4-fluoro-2-methylphenyl)-7-(((4-methylisoxazol-3-yl)amino)methyl)-3,4-dihydrobenzo[f][1,4]oxazepin-5(2H)-one] was > 940 nM.

As to `COc1cc(CN2CCOc3c(cc(Cn4ccccc4=N)cc3-c3ccc(F)cc3C)C2=O)cc(OC)c1` [Example 8, 4-(3,5-Dimethoxybenzyl)-9-(4-fluoro-2-methylphenyl)-7-((2-iminopyridin-1(2H)-yl)methyl)-3,4-dihydrobenzo[f][1,4]oxazepin-5(2H)-one], the GI50 is 355 nM.

With `COc1cc(CN2CCOc3c(cc(Cn4ccoc4=N)cc3-c3ccc(F)cc3C)C2=O)cc(OC)c1` [Example 9, 4-(3,5-Dimethoxybenzyl)-9-(4-fluoro-2-methylphenyl)-7-((2-iminooxazol-3(2H)-yl)methyl)-3,4-dihydrobenzo[f][1,4]oxazepin-5(2H)-one], the GI50 amounted to 259 nM.

Consider `COc1cc(CN2CCOc3c(cc(CNc4ccccn4)cc3-c3ccc(F)cc3C)C2=O)cc(OC)c1` [Example 10, 4-(3,5-Dimethoxybenzyl)-9-(4-fluoro-2-methylphenyl)-7-((pyridin-2-ylamino)methyl)-3,4-dihydrobenzo[f][1,4]oxazepin-5(2H)-one], for which the GI50 was > 940 nM. The value for `Cc1ccnc(CN2CCOc3c(cc(Cn4ccn(C)c4=N)cc3-c3ccc(F)cc3C)C2=O)c1` [Example 11, 9-(4-Fluoro-2-methylphenyl)-7-((2-imino-3-methyl-2,3-dihydro-1H-imidazol-1-yl)methyl)-4-((4-methylpyridin-2-yl)methyl)-3,4-dihydrobenzo[f][1,4]oxazepin-5(2H)-one] was 11 nM. The value for `Cc1cc(C)nc(CN2CCOc3c(cc(Cn4ccn(C)c4=N)cc3-c3ccc(F)cc3C)C2=O)c1` [Example 12, 4-((4,6-Dimethylpyridin-2-yl)methyl)-9-(4-fluoro-2-methylphenyl)-7-((2-imino-3-methyl-2,3-dihydro-1H-imidazol-1-yl)methyl)-3,4-dihydrobenzo[f][1,4]oxazepin-5(2H)-one] was 3.5 nM; that for `COc1ccnc(CN2CCOc3c(cc(Cn4ccn(C)c4=N)cc3-c3ccc(F)cc3C)C2=O)c1` [Example 13, 9-(4-Fluoro-2-methylphenyl)-7-((2-imino-3-methyl-2,3-dihydro-1H-imidazol-1-yl)methyl)-4-((4-methoxypyridin-2-yl)methyl)-3,4-dihydrobenzo[f][1,4]oxazepin-5(2H)-one] was 12 nM. On to `COc1cc(CN2CC(=O)Nc3c(cc(Cn4ccn(C)c4=N)cc3-c3ccc(F)cc3C)C2=O)cc(OC)c1` [Example 14, 4-(3,5-Dimethoxybenzyl)-9-(4-fluoro-2-methylphenyl)-7-((2-imino-3-methyl-2,3-dihydro-1H-imidazol-1-yl)methyl)-3,4-dihydro-1H-benzo[e][1,4]diazepine-2,5-dione], for which the GI50 is 167 nM. The value for `COc1cc(CN2CCOc3c(cc(Cn4cnn(C)c4=N)cc3-c3cn(C)nc3C(F)(F)F)C2=O)cc(OC)c1` [Example 15, 4-(3,5-Dimethoxybenzyl)-7-((5-imino-1-methyl-1,5-dihydro-4H-1,2,4-triazol-4-yl)methyl)-9-(1-methyl-3-(trifluoromethyl)-1H-pyrazol-4-yl)-3,4-dihydrobenzo[f][1,4]oxazepin-5(2H)-one] was 101 nM.

For the molecule `COc1cc(CN2CCOc3c(cc(Cn4ccn(C)c4=N)cc3-c3cn(C)nc3C(F)(F)F)C2=O)cc(OC)c1` [Example 16, 4-(3,5-Dimethoxybenzyl)-7-((2-imino-3-methyl-2,3-dihydro-1H-imidazol-1-yl)methyl)-9-(1-methyl-3-(trifluoromethyl)-1H-pyrazol-4-yl)-3,4-dihydrobenzo[f][1,4]oxazepin-5(2H)-one], the GI50 came out at 79 nM. For `COc1cc(CN2CC(C)Oc3c(cc(Cn4ccn(C)c4=N)cc3-c3ccc(F)cc3C)C2=O)cc(OC)c1` (stereo not shown) [Example 17, 4-(3,5-Dimethoxybenzyl)-9-(4-fluoro-2-methylphenyl)-7-((2-imino-3-methyl-2,3-dihydro-1H-imidazol-1-yl)methyl)-2-methyl-3,4-dihydrobenzo[f][1,4]oxazepin-5(2H)-one], the GI50 was found to be 22 nM.

In the case of `COc1cc(Cn2cnc3c(-c4ccc(F)cc4C)cc(Cn4cnn(C)c4=N)cc3c2=O)cc(OC)c1` [Example 18, 3-(3,5-Dimethoxybenzyl)-8-(4-fluoro-2-methylphenyl)-6-((5-imino-1-methyl-1,5-dihydro-4H-1,2,4-triazol-4-yl)methyl)quinazolin-4(3H)-one], the GI50 was 672 nM.

Regarding `COc1cc(Cn2cnc3c(-c4ccc(F)cc4C)cc(Cn4ccoc4=N)cc3c2=O)cc(OC)c1` [Example 19, 3-(3,5-Dimethoxybenzyl)-8-(4-fluoro-2-methylphenyl)-6-((2-iminooxazol-3(2H)-yl)methyl)quinazolin-4(3H)-one], the GI50 was found to be 7980 nM. The value for `COc1cc(Cn2cnc3c(-c4cn(C)nc4C(F)(F)F)cc(Cn4ccn(C)c4=N)cc3c2=O)cc(OC)c1` [Example 20, 3-(3,5-Dimethoxybenzyl)-6-((2-imino-3-methyl-2,3-dihydro-1H-imidazol-1-yl)methyl)-8-(1-methyl-3-(trifluoromethyl)-1H-pyrazol-4-yl)quinazolin-4(3H)-one] was 630 nM. In the case of `COc1cc(Cn2c(C)nc3c(-c4ccc(F)cc4C)cc(CNC4=NCCN4)cc3c2=O)cc(OC)c1` [Example 21, 6-(((4,5-Dihydro-1H-imidazol-2-yl)amino)methyl)-3-(3,5-dimethoxybenzyl)-8-(4-fluoro-2-methylphenyl)-2-methylquinazolin-4(3H)-one], the GI50 turned out to be 194 nM. The value for `Cc1cc(C)nc(CN2CCOc3c(cc(Cn4ccn(C)c4=N)cc3-c3cn(C)nc3C(F)(F)F)C2=O)c1` [Example 22, 4-((4,6-Dimethylpyridin-2-yl)methyl)-7-((2-imino-3-methyl-2,3-dihydro-1H-imidazol-1-yl)methyl)-9-(1-methyl-3-(trifluoromethyl)-1H-pyrazol-4-yl)-3,4-dihydrobenzo[f][1,4]oxazepin-5(2H)-one] was 173 nM; that for `COc1cc(CN2CNc3c(cc(Cn4ccn(C)c4=N)cc3-c3ccc(F)cc3C)C2=O)cc(OC)c1` [Example 23, 3-(3,5-Dimethoxybenzyl)-8-(4-fluoro-2-methylphenyl)-6-((2-imino-3-methyl-2,3-dihydro-1H-imidazol-1-yl)methyl)-2,3-dihydroquinazolin-4(1H)-one] was 92 nM; that for `Cn1cc(-c2cc(Cn3ccn(C)c3=N)cc3c(=O)n(-c4ccccc4-c4ccccc4)cnc23)c(C(F)(F)F)n1` [Example 24, 3-([1,1′-Biphenyl]-2-yl)-6-((2-imino-3-methyl-2,3-dihydro-1H-imidazol-1-yl)methyl)-8-(1-methyl-3-(trifluoromethyl)-1H-pyrazol-4-yl)quinazolin-4(3H)-one] was 9010 nM.

Regarding `Cc1ccnc(CN2CCOc3c(cc(Cn4ccnc4C)cc3-c3ccc(F)cc3C)C2=O)c1` [Example 25, 9-(4-Fluoro-2-methylphenyl)-7-((2-methyl-1H-imidazol-1-yl)methyl)-4-((4-methylpyridin-2-yl)methyl)-3,4-dihydrobenzo[f][1,4]oxazepin-5(2H)-one], the GI50 amounted to 300 nM.
